From US7747390B2, “Digital cell” (National Institute of Advanced Industrial Science and …, priority 2003, dated 2010) come the findings set out here.

Experiment [1] has as its system cells on transfection array. The experiment is described as follows: Transfection efficiency when fibronectin fragments were used (FIGS. 2-4). In kind it is cell-based. The conditions noted are these: fibronectin fragments or RGD peptide as actin-like acting substance. As for the experimental part:
(§1) The final concentration of DNA was adjusted to 1 μg/μL. An actin-like acting substance was preserved as a stock having a concentration of 10 μg/μL in ddH2O. All dilutions were made using PBS, ddH2O, or Dulbecco's MEM. A series of dilutions, for example, 0.2 μg/μL, 0.27 μg/μL, 0.4 μg/μL, 0.53 μg/μL, 0.6 μg/μL, 0.8 μg/μL, 1.0 μg/μL, 1.07 μg/μL, 1.33 μg/μL, and the like, were formulated.
(§2) Transfection reagents and DNA were mixed to form a DNA-transfection reagent complex. Formation of the complex requires a certain period of time. Therefore, the mixture was spotted onto a solid phase support (e.g., a poly-L-lysine slide) using an arrayer. In Example 2, as a solid phase support, an APS slide, a MAS slide, and an uncoated slide were used as well as a poly-L-lysine slide. These slides are available from Matsunami Glass (Kishiwada, Japan) or the like.
300 μL of DNA concentrated buffer (EC buffer)+16 μL of an enhancer were mixed in an Eppendorf tube. The mixture was mixed with a Vortex, followed by incubation for 5 minutes. 50 μL of a transfection reagent (Effectene, etc.) was added to the mixture, followed by mixing by pipetting. […]
(§3) To quantify transfection efficiency, the present inventors use a DNA microarray scanner (GeneTAC UC4×4, Genomic Solutions Inc., MI). Total fluorescence intensity (arbitrary unit) was measured, and thereafter, fluorescence intensity per unit surface area was calculated.

A further experiment relates to HEK293 cells. The experiment is described as follows: Solid phase transfection with actin-like acting substances (FIG. 1). The format is cell-based, human. As to conditions: pEGFP-N1, Effectene reagent, gelatin as control. As for the experimental part: as §1, §2
(§4) 300 μL of DNA concentrated buffer (EC buffer)+16 μL of an enhancer were mixed in an Eppendorf tube. The mixture was mixed with a Vortex, followed by incubation for 5 minutes. 50 μL of a transfection reagent (Effectene, etc.) was added to the mixture, followed by mixing by pipetting. To apply a transfection reagent, an annular wax barrier was formed around the spots on the slide. 366 μL of the mixture was added to the spot region surrounded by the wax, followed by incubation at room temperature for 10 to 20 minutes. Thereby, the fixation to the support was manually achieved.
(§5) The growing cells were distributed to a concentration of 10^7 cells/25 mL. The cells were plated on the slide in a 100×100×15 mm squared Petri dish or a 100 mm (radius)×15 mm circular dish. Transfection was conducted for about 40 hours. This period of time corresponded to about 2 cell cycles. The slide was treated for immunofluorescence.
as §3

Experiment [2] concerns cells on transfection array. Put plainly: Transfection at various fibronectin concentrations on coated and uncoated slides (FIG. 7). The format is cell-based. As for the experimental part: as §1, §2, §4, §5, §3
The test system of experiment [3] is human mesenchymal stem cells (hMSC). The experiment is described as follows: Cell adhesion profile and cross-sectional confocal observation in presence or absence of fibronectin (FIGS. 8-10). In kind it is cell-based.
Experiment [4] has as its system cells resistant or sensitive to the anticancer agent. The experiment is described as follows: Time-lapse profiles of cells exposed to anticancer agent. In kind it is cell-based. The conditions noted are these: cisplatin 1 μM, 5 μM, 10 μM in medium. As for the experimental part: In this example, cisplatin was used as an exemplary anticancer agent and was mixed into the medium of exposed cells. The concentration of the anticancer agent was selected as appropriate, such as 1 μM, 5 μM, 10 μM, and the like, to observe the reaction of the cells. Cisplatin was applied to cells resistant or sensitive to the anticancer agent. Time-lapse observation was conducted to produce profiles as in the above-described examples.

Take “RGD peptide (tripeptide) [reference compound]”: the transfection activity result in experiment [1] is given as “increased transfection efficiency was not exhibited”. The “transfection (transfection efficiency)” value with HEK293 cells is “substantially no effect”.

Take gelatin [reference compound]: the “transfection (transfection efficiency)” value with HEK293 cells is on record as “not very successful”.

On to laminin, for which, in the experiment on HEK293 cells, the “transfection (transfection efficiency)” value is listed as “transfection took place to a significant level”.

Regarding fibronectin, the “fibronectin concentration at which the effect was further increased” value in experiment [2] (APS coating) was more than 1.07 µg/µL. The “fibronectin concentration at which transfection efficiency reached a plateau” value in experiment [2] (PLL coating) and in experiment [2] (absence of coating) was “more than 0.53 μg/μL” in each case. The “transfection efficiency versus fibronectin concentration” value in experiment [2] (fibronectin 0, 0.27, 0.53, 0.8, 1.07, 1.33 μg/μL, FIG. 7) is recorded as “increased with an increase in fibronectin concentration”. Besides, the “surface area of the nucleus” value in experiment [3] (in the presence of fibronectin, FIG. 10) is “significantly increased”. Further, in experiment [3] (initial 3 hours of culture in the presence of fibronectin, FIG. 9), the “extension of adherent cells” value was “full extension of cells”. In addition, the “transfection (transfection efficiency)” value in the experiment with HEK293 cells is on record as “transfection took place to a significant level”.

As to `N.N.[Cl][Pt][Cl]` [cisplatin], in experiment [4], the time-lapse profiles entry was “varied depending on the difference in cisplatin concentration and resistance/sensitivity”.
